# Test: Adverse events by CTCAE grade and frequency, all dosing cohorts
# Assay type: in vivo, human
# Excerpt: Patients were enrolled into 1 of 2 parallel, independently operating, dose-escalation dosing cohorts with Form B of Compound II administered continuously either once daily (QD) or twice daily (BID) with food with fixed-dose fulvestrant (intramuscularly every 14 days for the first three injections and then every 28 days). Pre- or perimenopausal patients also received goserelin for the duration of study treatment. A […] agonist was started at least 28 days before the first dose of Form B, and those patients who were taking another LHRH agonist were switched to goserelin on Day 1. Patients were split into […] cohorts providing once a day (QD) dosing of 200 mg, 300 mg, 400 mg, 500 mg, or 650 mg of Form B, or twice a day (BID) dosing of 100 mg, 150 mg, or 200 mg of Form B. The second dose in BID cohorts was not administered in the evening until at least 12 hours after the initial morning dose of Form B. The dosing cohorts for Form B of Compound II are provided in Table 1.
# [1] = Dose 100 mg BID, adverse event frequency
# [2] = Dose 150 mg BID, adverse event frequency
# [3] = Dose 200 mg BID, adverse event frequency
# [4] = Dose 200 mg QD, adverse event frequency
# [5] = Dose 300 mg QD, adverse event frequency
# [6] = Dose 400 mg QD, adverse event frequency
# [7] = Dose 500 mg QD, adverse event frequency
# [8] = Dose 650 mg QD, adverse event frequency
# [9] = Total, all dosing cohorts, All Grades, frequency
# [10] = Total, all dosing cohorts, CTCAE Grade 1, frequency
# [11] = Total, all dosing cohorts, CTCAE Grade 2, frequency
# [12] = Total, all dosing cohorts, CTCAE Grade 3, frequency
# [13] = Total, all dosing cohorts, CTCAE Grade 4, frequency
smiles,measurement,setting,value
CC(C)N1CCN(c2ccc(Nc3ncc4cc5n(c4n3)C3(CCCCC3)CNC5=O)nc2)CC1 [Form B],ALT increase,[1],0
same,AST increased,[1],0
same,Anemia,[1],2
same,BUN increased,[1],0
same,Diarrhea,[1],1
same,Fatigue,[1],1
same,Febrile neutropenia,[1],0
same,GGT increased,[1],0
same,Hematuria,[1],1
same,Leukopenia,[1],3
same,Lymphopenia,[1],0
same,Metrorrhagia,[1],0
same,Nausea,[1],2
same,Neutropenia,[1],4
same,SCr increased,[1],1
same,Stomatitis,[1],0
same,Thrombocytopenia,[1],1
same,Vomiting,[1],0
same,ALT increase,[2],0
same,AST increased,[2],0
same,Anemia,[2],1
same,BUN increased,[2],0
same,Diarrhea,[2],2
same,Fatigue,[2],1
same,Febrile neutropenia,[2],1
same,GGT increased,[2],0
same,Hematuria,[2],1
same,Leukopenia,[2],3
same,Lymphopenia,[2],0
same,Metrorrhagia,[2],1
same,Nausea,[2],1
same,Neutropenia,[2],3
same,SCr increased,[2],0
same,Stomatitis,[2],1
same,Thrombocytopenia,[2],1
same,Vomiting,[2],1
same,ALT increase,[3],0
same,AST increased,[3],0
same,Anemia,[3],0
same,BUN increased,[3],0
same,Diarrhea,[3],1
same,Fatigue,[3],1
same,Febrile neutropenia,[3],0
same,GGT increased,[3],0
same,Hematuria,[3],0
same,Leukopenia,[3],1
same,Lymphopenia,[3],0
same,Metrorrhagia,[3],0
same,Nausea,[3],1
same,Neutropenia,[3],2
same,SCr increased,[3],0
same,Stomatitis,[3],0
same,Thrombocytopenia,[3],0
same,Vomiting,[3],0
same,ALT increase,[4],0
same,AST increased,[4],0
same,Anemia,[4],3
same,BUN increased,[4],1
same,Diarrhea,[4],1
same,Fatigue,[4],0
same,Febrile neutropenia,[4],0
same,GGT increased,[4],0
same,Hematuria,[4],1
same,Leukopenia,[4],4
same,Lymphopenia,[4],1
same,Metrorrhagia,[4],0
same,Nausea,[4],0
same,Neutropenia,[4],4
same,SCr increased,[4],0
same,Stomatitis,[4],0
same,Thrombocytopenia,[4],0
same,Vomiting,[4],0
same,ALT increase,[5],0
same,AST increased,[5],0
same,Anemia,[5],1
same,BUN increased,[5],1
same,Diarrhea,[5],2
same,Fatigue,[5],1
same,Febrile neutropenia,[5],0
same,GGT increased,[5],0
same,Hematuria,[5],1
same,Leukopenia,[5],2
same,Lymphopenia,[5],0
same,Metrorrhagia,[5],0
same,Nausea,[5],2
same,Neutropenia,[5],3
same,SCr increased,[5],0
same,Stomatitis,[5],0
same,Thrombocytopenia,[5],1
same,Vomiting,[5],2
same,ALT increase,[6],1
same,AST increased,[6],1
same,Anemia,[6],2
same,BUN increased,[6],0
same,Diarrhea,[6],2
same,Fatigue,[6],2
same,Febrile neutropenia,[6],0
same,GGT increased,[6],1
same,Hematuria,[6],1
same,Leukopenia,[6],0
same,Lymphopenia,[6],0
same,Metrorrhagia,[6],0
same,Nausea,[6],3
same,Neutropenia,[6],3
same,SCr increased,[6],0
same,Stomatitis,[6],0
same,Thrombocytopenia,[6],1
same,Vomiting,[6],3
same,ALT increase,[7],1
same,AST increased,[7],0
same,Anemia,[7],2
same,BUN increased,[7],0
same,Diarrhea,[7],1
same,Fatigue,[7],1
same,Febrile neutropenia,[7],0
same,GGT increased,[7],0
same,Hematuria,[7],0
same,Leukopenia,[7],1
same,Lymphopenia,[7],0
same,Metrorrhagia,[7],0
same,Nausea,[7],3
same,Neutropenia,[7],3
same,SCr increased,[7],1
same,Stomatitis,[7],0
same,Thrombocytopenia,[7],3
same,Vomiting,[7],1
same,ALT increase,[8],0
same,AST increased,[8],0
same,Anemia,[8],0
same,BUN increased,[8],0
same,Diarrhea,[8],4
same,Fatigue,[8],1
same,Febrile neutropenia,[8],0
same,GGT increased,[8],0
same,Hematuria,[8],0
same,Leukopenia,[8],2
same,Lymphopenia,[8],0
same,Metrorrhagia,[8],0
same,Nausea,[8],3
same,Neutropenia,[8],2
same,SCr increased,[8],0
same,Stomatitis,[8],0
same,Thrombocytopenia,[8],0
same,Vomiting,[8],5
same,ALT increase,[9],2
same,AST increased,[9],1
same,Anemia,[9],11
same,BUN increased,[9],2
same,Diarrhea,[9],14
same,Fatigue,[9],8
same,Febrile neutropenia,[9],1
same,GGT increased,[9],1
same,Hematuria,[9],5
same,Leukopenia,[9],16
same,Lymphopenia,[9],1
same,Metrorrhagia,[9],1
same,Nausea,[9],15
same,Neutropenia,[9],24
same,SCr increased,[9],2
same,Stomatitis,[9],1
same,Thrombocytopenia,[9],7
same,Vomiting,[9],12
same,ALT increase,[10],1
same,AST increased,[10],0
same,Anemia,[10],3
same,BUN increased,[10],2
same,Diarrhea,[10],6
same,Fatigue,[10],5
same,Febrile neutropenia,[10],0
same,GGT increased,[10],0
same,Hematuria,[10],5
same,Leukopenia,[10],4
same,Lymphopenia,[10],0
same,Metrorrhagia,[10],0
same,Nausea,[10],8
same,Neutropenia,[10],6
same,SCr increased,[10],2
same,Stomatitis,[10],0
same,Thrombocytopenia,[10],5
same,Vomiting,[10],5
same,ALT increase,[11],1
same,AST increased,[11],1
same,Anemia,[11],2
same,BUN increased,[11],0
same,Diarrhea,[11],8
same,Fatigue,[11],3
same,Febrile neutropenia,[11],0
same,GGT increased,[11],1
same,Hematuria,[11],0
same,Leukopenia,[11],9
same,Lymphopenia,[11],1
same,Metrorrhagia,[11],1
same,Nausea,[11],7
same,Neutropenia,[11],7
same,SCr increased,[11],0
same,Stomatitis,[11],1
same,Thrombocytopenia,[11],2
same,Vomiting,[11],3
same,ALT increase,[12],0
same,AST increased,[12],0
same,Anemia,[12],1
same,BUN increased,[12],0
same,Diarrhea,[12],0
same,Fatigue,[12],0
same,Febrile neutropenia,[12],1
same,GGT increased,[12],0
same,Hematuria,[12],0
same,Leukopenia,[12],3
same,Lymphopenia,[12],0
same,Metrorrhagia,[12],0
same,Nausea,[12],0
same,Neutropenia,[12],9
same,SCr increased,[12],0
same,Stomatitis,[12],0
same,Thrombocytopenia,[12],0
same,Vomiting,[12],0
same,ALT increase,[13],0
same,AST increased,[13],0
same,Anemia,[13],0
same,BUN increased,[13],0
same,Diarrhea,[13],0
same,Fatigue,[13],0
same,Febrile neutropenia,[13],0
same,GGT increased,[13],0
same,Hematuria,[13],0
same,Leukopenia,[13],0
same,Lymphopenia,[13],0
same,Metrorrhagia,[13],0
same,Nausea,[13],0
same,Neutropenia,[13],2
same,SCr increased,[13],0
same,Stomatitis,[13],0
same,Thrombocytopenia,[13],0
same,Vomiting,[13],0

# Source: patent publication US11357779B2 (G1 Therapeutics, Inc., priority 2018, dated 2022)
